# The supplement of paper PMC9763283
# ± gives the standard deviation of the averaged measurements.
# Legend:
# Test in all cases: area under growth-rate inhibition curve (AUC GRI) (dimensionless (GR-based AUC)); higher = less growth inhibition
# Conditions in all cases: exposure time: 72 h; concentrations: 0.1, 1, 10 uM
# MDA-MB-468 = system: MDA-MB-468
# How it was run: (§1)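 The area under the growth-rate inhibition curve was measured in six breast cancer cell line models, covering triple-negative lines and HER2+ lines, both parental and resistant to a two-drug combination. Cells were exposed to compound at 0.1, 1 or 10 µM for 72 h, fixed in 4% paraformaldehyde, and nuclei were stained with Hoechst 33342 or DAPI for imaging and counting. Day 0 plates, untreated Day 3 plates and DMSO controls served to correct growth across 2 biological replicates.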
# MDA-MB-231 = system: MDA-MB-231
# How it was run: as §1
# BT474-LTR = system: BT474-LTR
# How it was run: as §1
# BT474-P = system: BT474-P
# How it was run: as §1
# SKBR3-P = system: SKBR3-P
# How it was run: as §1
# SKBR3-LTR = system: SKBR3-LTR
# How it was run: as §1
SMILES,area under growth-rate inhibition curve (MDA-MB-468),area under growth-rate inhibition curve (MDA-MB-231),area under growth-rate inhibition curve (BT474-LTR),area under growth-rate inhibition curve (BT474-P),area under growth-rate inhibition curve (SKBR3-P),area under growth-rate inhibition curve (SKBR3-LTR)
C[C@]12CCC(=O)C=C1CC[C@H]1[C@@H]3CC[C@@](C)(O)[C@@]3(C)C[C@H](O)[C@@]12F [Fluoxymesterone],1.04,0.995,0.955,0.937,1.01,1.03
OCCN1CCN(CCCN2c3ccccc3Sc3ccc(C(F)(F)F)cc32)CC1.[Cl-].[Cl-].[H+].[H+] [Fluphenazine (dihydrochloride)],0.953,0.991,1.06,0.966,0.975,1.05
Cl.Cl.OCCN1CCN(CCCN2c3ccccc3Sc3ccc(C(F)(F)F)cc32)CC1 [Fluphenazine dihydrochloride?],1.03,1.03,1.02,1.01,1.02,1.05
CCC(=O)O[C@@]1(C(=O)SCF)[C@H](C)CC2C3CC(F)C4=CC(=O)C=C[C@]4(C)[C@]3(F)C(O)C[C@@]21C (some centres undefined) [Fluticasone propionate],1.04,0.973,1.04,0.985,0.915,1.05
COCCCC/C(=N\OCCN)c1ccc(C(F)(F)F)cc1.O=C(O)/C=C\C(=O)O [Fluvoxamine maleate],1.03,1.01,1.1,1.04,1.02,1.05
COc1ccc(C[C@H](C)NC[C@@H](O)c2ccc(O)c(NC=O)c2)cc1.COc1ccc(C[C@H](C)NC[C@@H](O)c2ccc(O)c(NC=O)c2)cc1.O=C(O)/C=C/C(=O)O [Formoterol Hemifumarate],1.01,0.93,1.05,1.01,1.03,1.09
C=C[C@@]1(C)CC(=O)[C@]2(O)[C@@]3(C)[C@@H](O)CCC(C)(C)[C@@H]3[C@H](O)[C@H](OC(C)=O)[C@@]2(C)O1 [Forskolin],1.01,0.924,1.02,0.984,1.03,1.04
CCC(=O)O[C@@H](OP(=O)(CCCCc1ccccc1)CC(=O)N1C[C@H](C2CCCCC2)C[C@H]1C(=O)[O-])C(C)C.[Na+] (some centres undefined) [Fosinopril Sodium],1.02,1.03,1.13,1.06,1.01,1.04
C[C@]12CC[C@@H]3c4ccc(O)cc4C[C@@H](CCCCCCCCCS(=O)CCCC(F)(F)C(F)(F)F)[C@H]3[C@@H]1CC[C@@H]2O (some centres undefined) [Fulvestrant],0.96,1.02,0.986,0.778,0.952,1.01
NCC1(CC(=O)O)CCCCC1 [Gabapentin],1.04,1.04,1.04,1,1.03,1.08
CC[N+](CC)(CC)CCOc1cccc(OCC[N+](CC)(CC)CC)c1OCC[N+](CC)(CC)CC.[I-].[I-].[I-] [Gallamine Triethiodide],1.01,1.03,1.08,1.02,1,1.03
C#C[C@]1(O)C=C[C@H]2[C@@H]3CCC4=CC(=O)CC[C@@H]4[C@H]3CC[C@@]21CC [Gestodene],1.03,1.03,1.04,0.981,1.01,1.12
NCC(=O)O [Glycine],1.03,1.04,1.05,1.03,1.03,1.06
N=C(N)N/N=C/c1c(Cl)cccc1Cl [Guanabenz Acetate],1,1.03,1.1,1.03,1.01,1.08
NC(N)=NCCCC(N)C(=O)NC(CCCN=C(N)N)C(=O)N1CCCC1C(=O)N1CC(O)CC1C(=O)NCC(=O)NC(Cc1cccs1)C(=O)NC(CO)C(=O)N1Cc2ccccc2CC1C(=O)N1C(C(=O)NC(CCCN=C(N)N)C(=O)O)CC2CCCCC21 (centres undefined) [HOE 140],1.02,1.01,1.06,1.03,1.04,1.04
O=C(CCCN1CCC(O)(c2ccc(Cl)cc2)CC1)c1ccc(F)cc1.[Cl-].[H+] [Haloperidol hydrochloride],1.04,1.04,1.07,1.03,1.01,1.05
COc1ccc([C@@H]2CC(=O)c3c(O)cc(O)cc3O2)cc1O [Hesperetin],0.996,1,1.02,1.01,1.03,1.02
CC[C@H](c1ccc(O)cc1)[C@@H](CC)c1ccc(O)cc1 [Hexestrol],0.973,1.02,1.06,1.05,0.989,0.993
Cl.Cl.NCCc1cnc[nH]1 [Histamine 2HCl],1.02,1.02,1.11,1.05,1.01,1.05
OCCOCCN1CCN(C(c2ccccc2)c2ccc(Cl)cc2)CC1.[Cl-].[Cl-].[H+].[H+] (centres undefined) [Hydroxyzine 2HCl],1.04,1.01,1.1,1.08,0.995,1.05
CN1C2CCC1CC(OC(=O)C(CO)c1ccccc1)C2 (centres undefined) [Hyoscyamine],1.04,1.03,1.13,1.06,1.04,1.04
NCCCCCNCC12CC3CC(CC(C3)C1)C2.[Br-].[Br-].[H+].[H+] [IEM 1754 dihydrobroMide],1.03,1.04,1.07,1.01,1.03,1.04
CC(C(O)c1ccc(O)cc1)N1CCC(Cc2ccccc2)CC1.CC(C(O)c1ccc(O)cc1)N1CCC(Cc2ccccc2)CC1.O=C(O)C(O)C(O)C(=O)O (centres undefined) [Ifenprodil Tartrate],0.985,1.04,1.01,1.02,0.985,0.997
COc1cc(C(C)=O)ccc1OCCCN1CCC(c2noc3cc(F)ccc23)CC1 [Iloperidone],1.03,1.04,1.02,0.979,0.991,1.07
CCc1cc2c(cc1CC)CC(NC[C@H](O)c1ccc(O)c3[nH]c(=O)ccc13)C2.O=C(O)/C=C\C(=O)O [Indacaterol Maleate],0.93,0.903,1,0.978,0.955,1.01

SMILES,area under growth-rate inhibition curve (MDA-MB-468),area under growth-rate inhibition curve (MDA-MB-231),area under growth-rate inhibition curve (BT474-LTR),area under growth-rate inhibition curve (BT474-P),area under growth-rate inhibition curve (SKBR3-P),area under growth-rate inhibition curve (SKBR3-LTR)
CCCCC1=NC2(CCCC2)C(=O)N1Cc1ccc(-c2ccccc2-c2nn[nH]n2)cc1 [Irbesartan],1.04 ± 0.023,1.042 ± 0.002,1.063 ± 0.0091,1.032 ± 0.0013,1.03 ± 0.019,1.04 ± 0.036
CC(C)NCC(O)c1ccc(O)c(O)c1.[Cl-].[H+] (centres undefined) [Isoprenaline HCl],1.04,1.05,1.08,1.04,0.995,1.03
COc1cc2c(cc1OC)CC(=O)N(CCCN(C)CC1Cc3cc(OC)c(OC)cc31)CC2.Cl (centres undefined) [Ivabradine HCl],1.01,1.01,1.04,1.02,1.03,1.07
CCc1ccc(OCc2ccccc2C(=O)Nc2ccc3nc(C)cc(N)c3c2)cc1.[Cl-].[H+] [JTC-801],0.718,0.713,0.744,0.751,0.778,0.8
CN1CCC(=C2c3ccccc3CC(=O)c3sccc32)CC1.O=C(O)/C=C/C(=O)O [Ketotifen Fumarate],1,0.939,1.07,1.02,1.01,1.1
N[C@@H](Cc1ccc(O)c(O)c1)C(=O)O [L-DOPA],1.05,1.05,1.04,0.987,1.03,1.05
"Cc1c(C(=O)Nc2ccc(N3CC(C)OC(C)C3)nc2)cccc1-c1ccc(OC(F)(F)F)cc1 (centres undefined) [LDE225 (NVP-LDE225,Erismodegib)]",0.915,0.921,1.04,0.909,0.981,1.03
CC(CCc1ccccc1)NCC(O)c1ccc(O)c(C(N)=O)c1.Cl (centres undefined) [Labetalol HCl],1.04,1.06,1.07,1.1,1.01,1.06
O=C(CS(=O)Cc1ccco1)NC/C=C\COc1cc(CN2CCCCC2)ccn1 (centres undefined) [Lafutidine],1.02,1.03,1.1,1.02,0.987,1.06
OC[C@H](O)CN1CCN(c2ccccc2)CC1 [Levodropropizine],1.03,0.999,0.995,1.01,1.02,0.975
CCN1CCCC1CNC(=O)c1cc(S(N)(=O)=O)ccc1OC (centres undefined) [Levosulpiride],1.03,1.01,1.06,1.02,1.01,1.05
CCN(CC)CC(=O)Nc1c(C)cccc1C [Lidocaine],1.05,1.03,1.11,1.04,1.03,1.08
NCCCC[C@H](N[C@@H](CCc1ccccc1)C(=O)O)C(=O)N1CCC[C@H]1C(=O)O.O.O [Lisinopril],1,1.01,1.1,1.06,1.02,1.08
CN(C)C(=O)C(CCN1CCC(O)(c2ccc(Cl)cc2)CC1)(c1ccccc1)c1ccccc1.[Cl-].[H+] [Loperamide HCl],0.911,1.03,0.94,0.882,0.943,1
C[C@H]1CNCCc2ccc(Cl)cc21.[Cl-].[H+] [Lorcaserin HCl],1.03,1.02,1.09,1.06,1.03,1.03
CN1CCN(C2=Nc3ccccc3Oc3ccc(Cl)cc32)CC1 [Loxapine],1.03,1.04,1.03,0.995,1.02,1.06
N#Cc1cc2cc(CN3CCC(Nc4ncnc5sc(CC(F)(F)F)cc45)CC3)ccc2[nH]1 [MI-136],0.834,0.931,0.906,0.833,0.895,1.01
C[C@]12N[C@H](Cc3ccccc31)c1ccccc12 [MK-801 (Dizocilpine)],1.05,1.03,1.09,1.03,0.998,1.06
Cc1cccc(C#Cc2ccccc2)n1 [MPEP],1.03,1.05,1.1,1.03,0.999,1.05
S=C=Nc1cccc(NC(=S)NCCCCNC(=S)Nc2cccc(N=C=S)c2)c1 [MRS 2578],1.03,1.02,1.08,1.02,1.02,1.07
CCCNS(=O)(=O)Nc1ncnc(OCCOc2ncc(Br)cn2)c1-c1ccc(Br)cc1 [Macitentan],1.02,1.02,1.01,0.957,1.02,1.02
CNCCCC12CCC(c3ccccc31)c1ccccc12.[Cl-].[H+] [Maprotiline HCl],0.96,0.967,1.02,0.984,0.982,1.02
Cc1cccc(C(C)c2c[nH]cn2)c1C.Cl (centres undefined) [Medetomidine HCl],1.02,1.01,0.982,0.995,1.03,0.995
CC(=O)O[C@]1(C(C)=O)CC[C@H]2[C@@H]3C[C@H](C)C4=CC(=O)CC[C@]4(C)[C@H]3CC[C@@]21C [Medroxyprogesterone acetate],1,1.03,1.02,0.945,0.953,1.01
